Laboratory results published in patent US6013665A, “Method for enhancing the absorption and transport of lipid soluble compounds using structured glycerides” (Abbott Laboratories, priority 1997, dated 2000).
Read-outs that look alike come from different tables or passages of the source.

Legend:
[1] = cited from earlier work
[2] = set-up: species or system Male Sprague Dawley rats; conditions: rat, in vivo
Description: (§1) The results set forth in FIGS. 1-4 are statistically significant at p<0.01 (see *). A two way analysis of variance model was employed for each treatment, lipid type and their interaction effects in the model were used to compare the area under each curve. Models were extended to included contrast statements comparing the physical mix and the structured triglyceride within each treatment group.
(§2) This experiment was conducted to determine if a structured glyceride consisting of a co-randomized MCT/fish oil would enhance the absorption of lipophilic compounds such as vitamin E (tocopherol) and retinol (vitamin A) using a lymph fistula rat model based upon a procedure described by Fujimoto et al., "Effect of Ischemia-Reperfusion on Lipid Digestion and Absorption in Rat Intestine", Am. J. Physiol., 260: G595-G602 (1991), the entire teaching of which is hereby incorporated by reference. This model was designed to represent fat absorption mode of the healthy intestinal tract (i.e., not compromised through disease or ischemic event). The lymph fistula rat model is extremely accurate in measuring and quantitating lipid absorption.
(§3) The physical mix (Part A)and structured triglyceride component (Part B) of Example 1 were used. […].
(§4) Male Sprague Dawley rats weighing between 280 and 330 grams were all fed a normal Purina Rat Chow for one week. Rats were fasted overnight prior to surgery and under anesthesia, a laparotomy was performed, the intestinal lymph duct was cannulated according to the procedure of Tso et al., "The Absorption of Lipid and Lipoprotein Synthesis", Lipid Research Methodology, Chapter 5: 191-216 (1984) Alan R. Liss, Inc., N.Y., N.Y, the entire teaching of which is hereby incorportated by reference. […] A silicon infusion tube (1.6 mm OD) was placed in the stomach for infusion of saline, structured lipid/lipophilic compound or emulsified physical mix/lipophilic compound. The fundic incision was closed by a purse string suture. The animals were allowed to recover for 24 hours before experimental oil/lipophilic compound infusion began.
(§5) Animals were randomly assigned to two groups in this non-injury model. […].
(§6) Lymph was collected in pre-cooled tubes beginning hourly for eight (8) hours after initiation of lipid infusion. At the end of the lipid infusion, the animals were sacrificed by exsanguination.
(§7) Radioactivity was measured in an aqueous miscible scintillant (Poly-Fluor, Packard, Downers Grove, Ill.). Samples were counted for 10 minutes in a liquid scintillation spectrophotometer (LKB Model 1209, Pharmacia, Inc.). Samples were corrected for quenching by reference to a series of ^14 C and ^3 H standards that were progressively quenched.
Lymph lipids were extracted and the methyl ester derivatives of the fatty acids were analyzed using a Hewlett Packard Gas Chromatograph, Model 5890A with a capillary column packed with 10% SP-2330 on 80/100 Supelcoport (Supelco, Inc., Bellefonte, Pa.).

[3] = rat, in vivo
Description: as §1, §2, §3, §4, §5, §6, §7
This experiment was conducted in a manner similar to Example 2 except that the ischemic/reperfusion injury model was used. This model was used to simulate the lipid malabsorption conditions associated with diseases such as Short Bowel Syndrome, Crohn's disease and the like. Animals were divided into two groups and given the physical mix (Group A) or the structured triglyceride component (Group B) of Example 2.

[4] = rat, in vivo; cited from earlier work
[5] = in vivo; cited from earlier work
[6] = in vivo; cited from earlier work; remark: listed apart in the source
[7] = cited from earlier work; remark: listed apart in the source

Q: For `CCCCCCCC/C=C\CCCCCCCC(=O)OCC(COC(=O)CCCCCCC/C=C\CCCCCCCC)OC(=O)CCCCCCC/C=C\CCCCCCCC` [triolein], which “amount of lipid transported to the lymph” value ([1]; lymph fistula rat, same amount of fatty acid infused as triolein or phosphatidylcholine with vitamin E) is on record?
A: similar

Q: Which “higher lymph output of the lipophilic compound with structured triglyceride compared to the corresponding physical mix” value [2] does the source give for α-tocopherol here?
A: ≥ 30%

Q: What about the “lymph tocopherol and retinol output with structured glyceride component versus physical mix” value [2] of the same compound?
A: increased rapidly and maintained a significantly higher output

Q: What about the “lymphatic tocopherol absorption, structured glyceride component vs physical mix (FIG. 2)” value [2] of the same compound?
A: enhances the lymphatic absorption of tocopherol over the entire 8 hour study period

Q: And the “higher lymph output of the lipophilic compound with structured triglyceride component compared to the corresponding physical mix” value [3]?
A: ≥ 30%

Q: And the “lymphatic tocopherol absorption, structured triglyceride vs physical mix, after about 2 hours (FIG. 4)” value [3]?
A: significantly enhanced level of lymphatic tocopherol absorption

Q: And the “tocopherol absorption, structured triglyceride component vs physical mix, initial 2 hour period (FIG. 4)” value [3]?
A: essentially equal

Q: What about the “gastrointestinal absorption of lecithin-dispersed aqueous preparations of vitamin E with MCT” value [4] of the same compound?
A: significantly enhanced the absorption

Q: What about the “lymphatic absorption of vitamin E from lecithin-dispersed aqueous preparations” value [4] of the same compound?
A: increase the lymphatic absorption of vitamin E

Q: And the “intestinal absorption of vitamin E with MCT” value [5]?
A: enhancing effect of MCT on intestinal absorption of vitamin E

Q: What about the “transport of vitamin E into lymph, phosphatidylcholine vs triglyceride infusion” value ([1]; rat, in vivo) of the same compound?
A: significantly reduced

Q: And the “α-tocopherol absorption by rat small intestine with polyunsaturated fatty acids in bile salt micelles” value [6]?
A: depress α-tocopherol absorption

Q: What about the “absorption into the lymphatic system from an emulsion” value ([7]; rat, in vivo) of the same compound?
A: poorly absorbed from the emulsion

Q: With phosphatidylcholine as the compound, how does the “amount of lipid transported to the lymph” value ([1]; rat, in vivo) read?
A: similar

Q: For `CCCCCCCC/C=C\CCCCCCCC(=O)O` [oleic acid], which “absorption into the lymphatic system from an emulsion” value ([7]; rats with bile diversion, emulsion) is on record?
A: well absorbed into the lymphatic system

Q: Which “lymph tocopherol and retinol output with structured glyceride component versus physical mix” value [2] does the source give for `CC1=C(/C=C/C(C)=C/C=C/C(C)=C/CO)C(C)(C)CCC1` [retinol] here?
A: increased rapidly and maintained a significantly higher output

Q: What about the “lymphatic retinol absorption, structured triglyceride component vs physical mix (FIG. 1)” value [2] of the same compound?
A: increased the lymphatic absorption of retinol over the entire 8 hour study period

Q: What about the “amount of retinol to the lymphatic circulation, structured triglyceride component vs physical mixture, end of study (FIG. 3)” value [3] of the same compound?
A: more than twice the amount

Q: And the “lymphatic retinol absorption, structured triglyceride component vs physical mixture, initial 3 hour period (FIG. 3)” value [3]?
A: about equal

Q: What about the “retinol absorption, structured triglyceride component over physical mix, after about 3 hours (FIG. 3)” value [3] of the same compound?
A: enhancement in the retinol absorption over the physical mix
